The values that follow come from US6908930B2, “4-substituted 7-AZA-indolin-2-ones and their use as protein kinase inhibitors” (Sugen, Inc., priority 1999, dated 2005).

The target of the test is T1, HER-2 (Homo sapiens, UniProt P04626).
T1 construct: expressed in mouse 3T3 (clone C7) cells; P00533 (Epidermal growth factor receptor)
Briefly: Assay for modulation of HER-2 activity in whole cells (ELISA). The format is cell-based. As to conditions: EGFR/HER-2chimera/#T3-C7 cell lines, EGF stimulated; read-out: HER-2 kinase IC50. On the procedure: Using the following reagents, supplies, and method, the ability of compounds of the invention to affect the activity of HER-2 in whole cells in an ELISA format can be assigned.
EGFR/HER-2chimera/#T3-C7 cell lines are used for this assay. Choose dishes having 80-90% confluence for the experiment. Collect cells by trypsinization and centrifuge at 1000 rpm at room temperature for 5 minutes.
Resuspend cells in starve medium and count with trypan blue. Only viability above 90% is acceptable. Seed cells in starve medium at a density of 2,500 cells per well, 90 μL per well, in a 96 well microtiter plate. Incubate seeded cells in 5% CO2 at 37° C. overnight. Start the assay two days after seeding.
Samples are diluted directly into a polypropylene plate containing starve-DMEM (non-sterile is okay). This dilution will be 1:10 or greater, depending on the samples being screened. The same amount of DMSO is put into the control wells. […] are then transferred to the cell plate at a 1:10 dilution (10 μL of sample and media into 90 μL of starve media). The final DMSO concentration will be 1% or lower.
Ten samples are put into wells 2-11 of row A of the NUNC 96 well polypropylene plate. These wells contain straight starve-DMEM. For a 1:10 dilution, one would put 10 μL of drug into 90 μL of media. The rest of the wells (including the controls) will have a DMSO/media mixture. The percentage of DMSO in this mixture is determined by the first dilution factor, in this case 1:10. The DMSO concentration is therefore 10%. An equal amount of drug and media from row A is put into row B, containing DMSO and media. The same amount is then taken out and put into row C. This is repeated for all rows. These are 1:2 dilutions. All wells are then transferred to the cell plate at a 1:10 dilution (10 μL of sample and media into 90 μL of starve-DMEM. The final DMSO concentration will be 1% or lower. […]
After a 2 hour incubation with the drug, add prepared EGF ligand to cells at 50 μL per well, for a final concentration of 50 nM. Positive control wells (8) receive the same amount of EGF. […] Incubate at 37° C. for 10 minutes.
Remove drug, EGF, and DMEM by dumping in sink. Wash cells once with PBS.
Transfer HNTG* to cells, 100 μL per well. Place on ice for 5 minutes. Meanwhile, remove blocking buffer from ELISA plate and wash as described above. With a pipette tip securely fitted to a micropipettor, scrape cells from plate and homogenize cell material by repeatedly aspirating and dispensing the HNTG* lysis buffer. Transfer lysate to a coated, blocked, washed ELISA plate. Alternatively, one may use a Costar transfer cartridge to transfer lysate to the ELISA plate. Incubate, shaking, at room temperature for one hour.
Remove lysate by dumping in sink, then wash as described earlier. Transfer freshly diluted anti-phosphotyrosine (anti-Ptyr) antibody (1:3000 in TEST) to ELISA plate, 100 μL per well. Incubate, shaking, at room temperature, for 30 minutes.
Remove anti-Ptyr antibody by dumping in sink, then wash as described earlier. Transfer freshly diluted BIOSOURCE antibody to ELISA plate, (1:8000 in TEST), 100 μL per well. Incubate, shaking, at room temperature for 30 minutes.
Remove BIOSOURCE antibody by dumping in sink, then wash as described earlier. Transfer freshly prepared ABTS/H2O2 solution to ELISA plate, […]. Incubate 5-10 minutes while shaking. Remove any bubbles and if necessary, stop reaction with the addition of 100 μL of 0.2 M HCl per well.
Read assay on Dynatech MR7000 ELISA reader. Test Filter: […]; Reference Filter: […]. A preferred template for the placement of controls in this experiment is provided below: […]
(In general: In an ELISA, binding on a coated surface is turned into a signal by an enzyme label.)

SMILES strings stand for the structures. Where a name gives a salt, the structure may show the parent alone.

T1 sequence (P04626 720-987 limits assumed): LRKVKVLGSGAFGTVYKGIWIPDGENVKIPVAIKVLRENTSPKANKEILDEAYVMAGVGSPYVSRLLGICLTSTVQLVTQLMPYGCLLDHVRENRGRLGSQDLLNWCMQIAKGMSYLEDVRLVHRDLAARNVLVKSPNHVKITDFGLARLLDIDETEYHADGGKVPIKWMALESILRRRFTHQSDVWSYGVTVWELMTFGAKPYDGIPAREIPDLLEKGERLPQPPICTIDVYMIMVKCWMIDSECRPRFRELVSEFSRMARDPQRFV

Broadly, the IC50 is the point on the concentration scale where inhibition reaches its midpoint. Take `Cc1cc(C(=O)NCCN2CCOCC2)[nH]c1C=C1C(=O)Nc2nccc(Nc3ccc(F)c(Cl)c3)c21` [Formula 3, 5-[4-(3-CHLORO-4-FLUORO-PHENYLAMINO)-2-OXO-1,2-DIHYDRO-PYRROLO[2,3-B]PYRIDIN-3-YLIDENEMETHYL]-4-METHYL-1H-PYRROLE-2-CARBOXYLIC ACID (2-MORPHOLIN-4-YL-ETHYL)-AMIDE]: the IC50 was determined as 272 nM.

As to `Cc1cc(C(=O)NCCN2CCOCC2)[nH]c1C=C1C(=O)Nc2ncnc(Nc3ccc(F)c(Cl)c3)c21` [Formula 4, 5-[4-(3-CHLORO-4-FLUORO-PHENYLAMINO)-6-OXO-6,7-DIHYDRO-PYRROLO[2,3-D]PYRIMIDIN-5-YLIDENEMETHYL]-4-METHYL-1H-PYRROLE-2-CARBOXYLIC ACID (2-MORPHOLIN-4-YL-ETHYL)-AMIDE HYDROCHLORIDE], the IC50 worked out at 160 nM. Regarding `O=C1Nc2ncnc(N3CCCCC3)c2C1=Cc1ccc(C(=O)NCCN2CCOCC2)[nH]1` [Formula 5, 5-(6-OXO-4-PIPERIDIN-1-YL-6,7-DIHYDRO-PYRROLO[2,3-D]PYRIMIDIN-5-YLIDENEMETHYL)-1H-PYRROLE-2-CARBOXYLIC ACID (2-MORPHOLIN-4-YL-ETHYL)-AMIDE], the 50% inhibitory concentration (IC50) is 61200 nM. With `Cc1cc(C(=O)NCCN2CCOCC2)[nH]c1C=C1C(=O)Nc2ncnc(Nc3ccc4c(ccn4Cc4ccccc4)c3)c21.Cl` [Formula 6, 5-[4-(1-BENZYL-1H-INDOL-5-YLAMINO)-6-OXO-6,7-DIHYDRO-PYRROLO[2,3-D]PYRIMIDIN-5-YLIDENEMETHYL]-4-METHYL-1H-PYRROLE-2-CARBOXYLIC ACID (2-MORPHOLIN-4-YL-ETHYL)-AMIDE HYDROCHLORIDE], the IC50 turned out to be 130 nM.

Consider `Cc1[nH]c(C=C2C(=O)Nc3ncnc(Nc4ccc(F)c(Cl)c4)c32)c(C)c1CCCN1CCOCC1` [Formula 7, 4-(3-CHLORO-4-FLUORO-PHENYLAMINO)-5-[3,5-DIMETHYL-4-(3-MORPHOLIN-4-YL-PROPYL)-1H-PYRROL-2-YLMETHYLENE]-5,7-DIHYDRO-PYRROLO[2,3-D]PYRIMIDIN-6-ONE HYDROCHLORIDE], for which the IC50 turned out to be 40 nM. For `Cc1nc[nH]c1C=C1C(=O)Nc2ncnc(Nc3ccc(F)c(Cl)c3)c21` [Formula 8] the value was 100 nM; for `Cc1cc(C)c(C=C2C(=O)Nc3ncnc(Nc4ccc(F)c(Cl)c4)c32)[nH]1` [Formula 9], 10 nM; for `Cc1cc(C(=O)NCCN2CCOCC2)[nH]c1C=C1C(=O)Nc2ncnc(N3CCN(C)CC3)c21` [Formula 10, 4-METHYL-5-[4-(4-METHYL-PIPERAZIN-1-YL)-6-OXO-6,7-DIHYDRO-PYRROLO[2,3-D]PYRIMIDIN-5-YLIDENEMETHYL]-1H-PYRROLE-2-CARBOXYLIC ACID (2-MORPHOLIN-4-YL-ETHYL)-AMIDE], greater than 100000 nM. On to `Cc1nc[nH]c1C=C1C(=O)Nc2ncnc(N3CCN(C)CC3)c21` [Formula 11], for which the IC50 is greater than 100000 nM.

Consider `O=C1Nc2ncnc(Nc3ccc4c(ccn4Cc4ccccc4)c3)c2C1=Cc1ccc(C(=O)NCCN2CCOCC2)[nH]1` [Formula 12, 5-[4-(1-BENZYL-1H-INDOL-5-YLAMINO)-6-OXO-6,7-DIHYDRO-PYRROLO[2,3-D]PYRIMIDIN-5-YLIDENEMETHYL]-1H-PYRROLE-2-CARBOXYLIC ACID (2-MORPHOLIN-4-YL-ETHYL)-AMIDE HYDROCHLORIDE], for which the IC50 came to 280 nM. Consider `O=C1Nc2ncnc(N3CCOCC3)c2C1=Cc1ccc(C(=O)NCCN2CCOCC2)[nH]1` [Formula 13, 5-(4-MORPHOLIN-4-YL-6-OXO-6,7-DIHYDRO-PYRROLO[2,3-D]PYRIMIDIN-5-YLIDENEMETHYL)-1H-PYRROLE-2-CARBOXYLIC ACID (2-MORPHOLIN-4-YL-ETHYL)-AMIDE], for which the IC50 was greater than 100000 nM.

For the molecule `Cc1nc[nH]c1C=C1C(=O)Nc2ncnc(N3CCOCC3)c21` [Formula 14], the 50% inhibitory concentration (IC50) was greater than 100000 nM. On to `O=C1Nc2ncnc(Nc3ccc(F)c(Cl)c3)c2C1=Cc1ccc(C(=O)NCCN2CCOCC2)[nH]1` [Formula 15, 5-[4-(3-CHLORO-4-FLUORO-PHENYLAMINO)-6-OXO-6,7-DIHYDRO-PYRROLO[2,3-D]PYRIMIDIN-5-YLIDENEMETHYL]-1H-PYRROLE-2-CARBOXYLIC ACID (2-MORPHOLIN-4-YL-ETHYL)-AMIDE], for which the IC50 stood at 130 nM. For the molecule `C#Cc1cccc(Nc2ncnc3c2C(=Cc2ccc(C(=O)NCCN4CCOCC4)[nH]2)C(=O)N3)c1` [Formula 16, 5-[4-(3-ETHYNYL-PHENYLAMINO)-6-OXO-6,7-DIHYDRO-PYRROLO[2,3-D]PYRIMIDIN-5-YLIDENEMETHYL]-1H-PYRROLE-2-CARBOXYLIC ACID (2-MORPHOLIN-4-YL-ETHYL)-AMIDE HYDROCHLORIDE], the IC50 turned out to be 1020 nM. For the molecule `C#Cc1cccc(Nc2ncnc3c2C(=Cc2[nH]c(C(=O)NCCN4CCOCC4)cc2C)C(=O)N3)c1` [Formula 17, 5-[4-(3-ETHYNYL-PHENYLAMINO)-6-OXO-6,7-DIHYDRO-PYRROLO[2,3-D]PYRIMIDIN-5-YLIDENEMETHYL]-4-METHYL-1H-PYRROLE-2-CARBOXYLIC ACID (2-MORPHOLIN-4-YL-ETHYL)-AMIDE], the IC50 was determined as 100 nM. As for `C#Cc1cccc(Nc2ncnc3c2C(=Cc2[nH]c(C)c(CCCN4CCOCC4)c2C)C(=O)N3)c1` [Formula 18], the figure is 30 nM. Take `CC(C)c1cc(CCC(=O)O)c(/C=C2\C(=O)Nc3ncnc(Nc4ccc(F)c(Cl)c4)c32)[nH]1` [Formula 27]: the IC50 amounted to 640 nM. Turning to `Cc1c(C(=O)N2CCOCC2)c[nH]c1/C=C1\C(=O)Nc2ncnc(Nc3ccc(F)c(Cl)c3)c21` [Formula 31], the IC50 amounted to 370 nM. Consider `Cc1cc(C(=O)N2CCOCC2)[nH]c1/C=C1\C(=O)N(C)c2ncnc(Nc3ccc(F)c(Cl)c3)c21` [Formula 34], for which the IC50 was greater than 20000 nM.

`Cc1cc(C(=O)N2CCN(C)CC2)[nH]c1/C=C1\C(=O)N(C)c2ncnc(Nc3ccc(F)c(Cl)c3)c21` [Formula 36]: the half-inhibitory concentration (IC50) is greater than 20000 nM. As to `Cc1cc(C=C2C(=O)Nc3ncnc(Nc4ccc(F)c(Cl)c4)c32)[nH]c1C(=O)N1CCOCC1` [Formula 37], the IC50 came to 1070 nM.
